Assay results taken from the supplement of paper PMC10627819.

How the values were obtained:
S. pneumoniae D39V [1] = test: fitness (endpoint OD595 vs no drug) (fraction); higher = more growth
In short: (§1)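 Plates with 384 wells were inoculated at OD595 0.01 using 30 µl of TSB, LB Lennox or CY, or 55 µl for S. pneumoniae. Incubation was at 37 °C, with OD595 measured every 30 min for 14 h. Fitness is the stationary-phase transition optical density over the robust mean of no-drug control wells, after first-reading background subtraction; it is capped at 1.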

S. aureus Newman [2] = test: as above
In short: as §1

S. aureus DSM 20231 [3] = test: as above
In short: as §1

S. pneumoniae D39V [4] = test: Bliss interaction score (quartile over a dose matrix) (fitness difference); higher = more antagonism (negative = synergy)
In short: (§2)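 Values were capped at 1 after dividing OD595 at stationary-phase entry by the plate's robust no-drug mean. This ratio is fitness, and single-drug fitness was inferred from the combination data. The Bliss score is observed minus product-expected fitness, given as quartiles over technical, biological and donor/recipient replicates.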

B. subtilis 168 = test: as above
In short: as §2

S. aureus Newman [5] = test: as above
In short: as §2

S. aureus DSM 20231 [6] = test: as above
In short: as §2
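Throughout, for Bliss interaction score (quartile over a dose matrix): first quartile when negative (synergy) and third quartile when positive (antagonism).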

CO/N=C(\C(=O)N[C@@H]1C(=O)N2C(C(=O)[O-])=C(C[N+]3(C)CCCC3)CS[C@H]12)c1csc(N)n1 [Cefepime] + C[n+]1ccc(-c2cc[n+](C)cc2)cc1 [Paraquat]
Settings | fitness
S. aureus DSM 20231 [3], first compound 0.125 µg/mL, partner 1.25 µg/mL | 0.9
S. aureus DSM 20231 [3], first compound 0.125 µg/mL, partner 2.5 µg/mL | 0.888
S. aureus DSM 20231 [3], first compound 0.125 µg/mL, partner 5 µg/mL | 0.874
S. aureus DSM 20231 [3], first compound 0.25 µg/mL, partner 1.25 µg/mL | 0.889
S. aureus DSM 20231 [3], first compound 0.25 µg/mL, partner 2.5 µg/mL | 0.876
S. aureus DSM 20231 [3], first compound 0.25 µg/mL, partner 5 µg/mL | 0.821
S. aureus DSM 20231 [3], first compound 0.5 µg/mL, partner 2.5 µg/mL | 0.853
S. aureus DSM 20231 [3], first compound 0.5 µg/mL, partner 5 µg/mL | 0.837
S. aureus Newman [2], first compound 0.125 µg/mL, partner 1.25 µg/mL | 0.901
S. aureus Newman [2], first compound 0.125 µg/mL, partner 2.5 µg/mL | 0.916
S. aureus Newman [2], first compound 0.125 µg/mL, partner 5 µg/mL | 0.898
S. aureus Newman [2], first compound 0.25 µg/mL, partner 1.25 µg/mL | 0.851
S. aureus Newman [2], first compound 0.25 µg/mL, partner 2.5 µg/mL | 0.854
S. aureus Newman [2], first compound 0.25 µg/mL, partner 5 µg/mL | 0.846
S. aureus Newman [2], first compound 0.5 µg/mL, partner 1.25 µg/mL | 0.768
S. aureus Newman [2], first compound 0.5 µg/mL, partner 2.5 µg/mL | 0.773
S. aureus Newman [2], first compound 0.5 µg/mL, partner 5 µg/mL | 0.839
S. pneumoniae D39V [1], first compound 0.007 µg/mL, partner 1.5 µg/mL | 0.99
S. pneumoniae D39V [1], first compound 0.007 µg/mL, partner 3 µg/mL | 0.996
S. pneumoniae D39V [1], first compound 0.007 µg/mL, partner 6 µg/mL | 0.971
S. pneumoniae D39V [1], first compound 0.014 µg/mL, partner 1.5 µg/mL | ≥ 1
S. pneumoniae D39V [1], first compound 0.014 µg/mL, partner 3 µg/mL | ≥ 1
S. pneumoniae D39V [1], first compound 0.014 µg/mL, partner 6 µg/mL | ≥ 1
S. pneumoniae D39V [1], first compound 0.028 µg/mL, partner 1.5 µg/mL | 0.934
S. pneumoniae D39V [1], first compound 0.028 µg/mL, partner 3 µg/mL | 0.917
S. pneumoniae D39V [1], first compound 0.028 µg/mL, partner 6 µg/mL | 0.869

fitness, S. pneumoniae D39V [1], one replicate
Settings | first compound 0.0078 µg/mL | first compound 0.0155 µg/mL | first compound 0.031 µg/mL
partner 1.5 µg/mL | 0.994 | 0.985 | 0.957
partner 3 µg/mL | ≥ 1 | ≥ 1 | 0.975
partner 6 µg/mL | ≥ 1 | ≥ 1 | ≥ 1

Settings | Bliss interaction score
B. subtilis 168 | -0.121
S. aureus DSM 20231 [6] | -0.0615
S. aureus Newman [5] | 0.0489
S. pneumoniae D39V [4] | 0.0315

CO/N=C(\C(=O)N[C@@H]1C(=O)N2C(C(=O)[O-])=C(C[N+]3(C)CCCC3)CS[C@H]12)c1csc(N)n1 [Cefepime] + Cc1cc(NS(=O)(=O)c2ccc(N)cc2)no1 [Sulfamethoxazol]
fitness
Settings | first compound 0.007 µg/mL | first compound 0.014 µg/mL | first compound 0.028 µg/mL | first compound 0.125 µg/mL | first compound 0.25 µg/mL | first compound 0.5 µg/mL
S. aureus DSM 20231 [3], partner 1 µg/mL | – | – | – | 0.839 | 0.739 | 0.79
S. aureus DSM 20231 [3], partner 2 µg/mL | – | – | – | 0.88 | 0.766 | 0.84
S. aureus DSM 20231 [3], partner 4 µg/mL | – | – | – | 0.874 | 0.779 | 0.823
S. aureus Newman [2], partner 1 µg/mL | – | – | – | 0.956 | 0.875 | 0.745
S. aureus Newman [2], partner 2 µg/mL | – | – | – | 0.908 | 0.843 | 0.773
S. aureus Newman [2], partner 4 µg/mL | – | – | – | 0.964 | 0.863 | 0.789
S. pneumoniae D39V [1], partner 1 µg/mL | 0.978 | 0.991 | 0.887 | – | – | –
S. pneumoniae D39V [1], partner 2 µg/mL | 0.982 | 0.986 | 0.922 | – | – | –
S. pneumoniae D39V [1], partner 4 µg/mL | 0.98 | 0.992 | 0.892 | – | – | –

fitness, one replicate
Settings | first compound 0.0078 µg/mL | first compound 0.0155 µg/mL | first compound 0.031 µg/mL | first compound 0.125 µg/mL | first compound 0.25 µg/mL | first compound 0.5 µg/mL
S. aureus Newman [2], partner 8 µg/mL | – | – | – | 0.981 | 0.972 | 0.854
S. pneumoniae D39V [1], partner 1 µg/mL | ≥ 1 | 0.99 | 0.842 | – | – | –
S. pneumoniae D39V [1], partner 2 µg/mL | ≥ 1 | ≥ 1 | 0.866 | – | – | –
S. pneumoniae D39V [1], partner 4 µg/mL | 0.959 | 0.914 | 0.804 | – | – | –

Settings | Bliss interaction score
B. subtilis 168 | 0.0793
S. aureus DSM 20231 [6] | -0.0768
S. aureus Newman [5] | -0.0727
S. pneumoniae D39V [4] | 0.034

CO/N=C(\C(=O)N[C@@H]1C(=O)N2C(C(=O)[O-])=C(C[N+]3(C)CCCC3)CS[C@H]12)c1csc(N)n1 [Cefepime] + Cc1ncc([N+](=O)[O-])n1CCO [Metronidazole]
Settings | fitness
S. aureus DSM 20231 [3], first compound 0.125 µg/mL, partner 0.625 µg/mL | 0.981
S. aureus DSM 20231 [3], first compound 0.125 µg/mL, partner 1.25 µg/mL | ≥ 1
S. aureus DSM 20231 [3], first compound 0.125 µg/mL, partner 2.5 µg/mL | ≥ 1
S. aureus DSM 20231 [3], first compound 0.25 µg/mL, partner 0.625 µg/mL | 0.958
S. aureus DSM 20231 [3], first compound 0.25 µg/mL, partner 1.25 µg/mL | ≥ 1
S. aureus DSM 20231 [3], first compound 0.25 µg/mL, partner 2.5 µg/mL | ≥ 1
S. aureus DSM 20231 [3], first compound 0.5 µg/mL, partner 0.625 µg/mL | 0.925
S. aureus DSM 20231 [3], first compound 0.5 µg/mL, partner 1.25 µg/mL | 0.958
S. aureus DSM 20231 [3], first compound 0.5 µg/mL, partner 2.5 µg/mL | 0.928
S. aureus Newman [2], first compound 0.125 µg/mL, partner 0.625 µg/mL | 0.942
S. aureus Newman [2], first compound 0.125 µg/mL, partner 0.781 µg/mL | 0.957
S. aureus Newman [2], first compound 0.125 µg/mL, partner 1.25 µg/mL | 0.922
S. aureus Newman [2], first compound 0.125 µg/mL, partner 1.562 µg/mL | 0.914
S. aureus Newman [2], first compound 0.125 µg/mL, partner 2.5 µg/mL | 0.957
S. aureus Newman [2], first compound 0.125 µg/mL, partner 3.124 µg/mL | 0.924
S. aureus Newman [2], first compound 0.25 µg/mL, partner 0.625 µg/mL | 0.855
S. aureus Newman [2], first compound 0.25 µg/mL, partner 0.781 µg/mL | 0.854
S. aureus Newman [2], first compound 0.25 µg/mL, partner 1.25 µg/mL | 0.876
S. aureus Newman [2], first compound 0.25 µg/mL, partner 1.562 µg/mL | 0.844
S. aureus Newman [2], first compound 0.25 µg/mL, partner 2.5 µg/mL | 0.814
S. aureus Newman [2], first compound 0.25 µg/mL, partner 3.124 µg/mL | 0.83
S. aureus Newman [2], first compound 0.5 µg/mL, partner 0.625 µg/mL | 0.799
S. aureus Newman [2], first compound 0.5 µg/mL, partner 0.781 µg/mL | 0.761
S. aureus Newman [2], first compound 0.5 µg/mL, partner 1.25 µg/mL | 0.752
S. aureus Newman [2], first compound 0.5 µg/mL, partner 1.562 µg/mL | 0.731
S. aureus Newman [2], first compound 0.5 µg/mL, partner 2.5 µg/mL | 0.749
S. aureus Newman [2], first compound 0.5 µg/mL, partner 3.124 µg/mL | 0.764
S. pneumoniae D39V [1], first compound 0.007 µg/mL, partner 1.25 µg/mL | ≥ 1
S. pneumoniae D39V [1], first compound 0.007 µg/mL, partner 2.5 µg/mL | ≥ 1
S. pneumoniae D39V [1], first compound 0.007 µg/mL, partner 5 µg/mL | ≥ 1
S. pneumoniae D39V [1], first compound 0.0078 µg/mL, partner 1.073 µg/mL | 0.998
S. pneumoniae D39V [1], first compound 0.0078 µg/mL, partner 2.145 µg/mL | 0.943
S. pneumoniae D39V [1], first compound 0.0078 µg/mL, partner 4.29 µg/mL | 0.988
S. pneumoniae D39V [1], first compound 0.014 µg/mL, partner 1.25 µg/mL | ≥ 1
S. pneumoniae D39V [1], first compound 0.014 µg/mL, partner 2.5 µg/mL | ≥ 1
S. pneumoniae D39V [1], first compound 0.014 µg/mL, partner 5 µg/mL | ≥ 1
S. pneumoniae D39V [1], first compound 0.0155 µg/mL, partner 1.073 µg/mL | 0.977
S. pneumoniae D39V [1], first compound 0.0155 µg/mL, partner 4.29 µg/mL | 0.968
S. pneumoniae D39V [1], first compound 0.028 µg/mL, partner 1.25 µg/mL | 0.957
S. pneumoniae D39V [1], first compound 0.028 µg/mL, partner 2.5 µg/mL | 0.964
S. pneumoniae D39V [1], first compound 0.028 µg/mL, partner 5 µg/mL | 0.912
S. pneumoniae D39V [1], first compound 0.031 µg/mL, partner 1.073 µg/mL | 0.939
S. pneumoniae D39V [1], first compound 0.031 µg/mL, partner 2.145 µg/mL | 0.9
S. pneumoniae D39V [1], first compound 0.031 µg/mL, partner 4.29 µg/mL | 0.942

Settings | Bliss interaction score
B. subtilis 168 | 0.0894
S. aureus DSM 20231 [6] | 0.047
S. aureus Newman [5] | -0.0502
S. pneumoniae D39V [4] | 0.0181
